# In patent US7642255B2, “Compounds and compositions as protein kinase inhibitors” (IRM LLC, priority 2004, dated 2010):
# pIC50: −log10 of the molar value.
# Columns and labels:
# Format in all cases: cell-based
# G250E Bcr-abl = target: T1, G250E Bcr-abl (Homo sapiens, UniProt P00519, G250E); assay: Antiproliferative effect on Ba/F3 cells expressing mutant BCR-Abl G250E
# T1 construct: BCR (N-terminal fusion partner); expressed in transfected cells; host or cells: Ba/F3 cells; the other entry of the earlier key: BCR (P11274, Breakpoint cluster region protein)
# Experimental: (§1) 32D-p210 cells are plated into 96 well TC plates at a density of 15,000 cells per well. 50 μL of two fold serial dilutions of the test compound (Cmax is 40 μM) are added to each well (STI571 is included as a positive control). After incubating the cells for 48 hours at 37° C., 5% CO2, 15 μL of MTT (Promega) is added to each well and the cells are incubated for an additional 5 hours. The optical density at 570 nm is quantified spectrophotometrically and IC50 values, the concentration of compound required for 50% inhibition, determined from a dose response curve.
# (§2) Compounds of the invention are tested for their antiproliferative effect on Ba/F3 cells expressing either wild type or the mutant forms of BCR-Abl (G250E, E255V, T3151, F317L, M351T) that confers resistance or diminished sensitivity to STI571. The antiproliferative effect of these compounds on the mutant-BCR-Abl expressing cells and on the non transformed cells were tested at 10, 3.3, 1.1 and 0.37 μM as described above (in media lacking IL3). The IC50 values of the compounds lacking toxicity on the untransformed cells were determined from the dose response curves obtained as describe above.
# wild type Bcr-abl = target: T2, wild type Bcr-abl (Homo sapiens, UniProt P00519); assay: Antiproliferative effect on Ba/F3 cells expressing wild type BCR-Abl
# T2 construct: BCR (N-terminal fusion partner); expressed in transfected cells; host or cells: Ba/F3 cells; the other entry of the earlier key: BCR (P11274, Breakpoint cluster region protein)
# Experimental: as §1, §2
# F317L Bcr-abl = target: T3, F317L Bcr-abl (Homo sapiens, UniProt P00519, F317L); assay: Antiproliferative effect on Ba/F3 cells expressing mutant BCR-Abl F317L
# T3 construct: BCR (N-terminal fusion partner); expressed in transfected cells; host or cells: Ba/F3 cells; the other entry of the earlier key: BCR (P11274, Breakpoint cluster region protein)
# Experimental: as §1, §2
# M351T Bcr-abl = target: T4, M351T Bcr-abl (Homo sapiens, UniProt P00519, M351T); assay: Antiproliferative effect on Ba/F3 cells expressing mutant BCR-Abl M351T
# T4 construct: BCR (N-terminal fusion partner); expressed in transfected cells; host or cells: Ba/F3 cells; the other entry of the earlier key: BCR (P11274, Breakpoint cluster region protein)
# Experimental: as §1, §2
# E255V Bcr-abl = target: T5, E255V Bcr-abl (Homo sapiens, UniProt P00519, E255V); assay: Antiproliferative effect on Ba/F3 cells expressing mutant BCR-Abl E255V
# T5 construct: BCR (N-terminal fusion partner); expressed in transfected cells; host or cells: Ba/F3 cells; the other entry of the earlier key: BCR (P11274, Breakpoint cluster region protein)
# Experimental: as §1, §2
# T3151 Bcr-abl = target: T6, T3151 Bcr-abl (Homo sapiens, UniProt P00519, T315I); assay: Antiproliferative effect on Ba/F3 cells expressing mutant BCR-Abl T3151
# T6 construct: BCR (N-terminal fusion partner); expressed in transfected cells; host or cells: Ba/F3 cells
# Experimental: as §1, §2
smiles,measurement,setting,value
"Cc1ccc(NC(=O)c2cccc(C(F)(F)F)c2)cc1N1Cc2cnc(Nc3cccc(N)c3)nc2N(C)C1=O [Example 2, N-{3-[7-(3-Amino-phenylamino)-1-methyl-2-oxo-1,4-dihydro-2H-pyrimido[4,5-d]pyrimidin-3-yl]-4-methyl-phenyl}-3-trifluoromethyl-benzamide]",pIC50,G250E Bcr-abl,8.70
same,pIC50,wild type Bcr-abl,8.30
same,pIC50,F317L Bcr-abl,8.30
same,pIC50,M351T Bcr-abl,8.30
same,pIC50,E255V Bcr-abl,8.30
same,pIC50,T3151 Bcr-abl,8.52
